Data set [1] in a line: Permeability across apical to basolateral side in MDCK cells at 20 uM. It is filed as ADME, cell-based, Canis lupus familiaris. As to conditions: dog.
The nature of data set [2]: Oral bioavailability in CD-1 mouse at 10 mg/kg by LC-MS/MS method. Format: ADME, organism-based. The conditions noted are these: in vivo.
Data set [3] in a line: Fraction unbound in CD-1 mouse plasma. Format: ADME, cell-free.
For data set [4], the system named is NCI-H460. As to the kind of experiment: Cytotoxicity against human NCI-H460 cells assessed as growth inhibition using low folate media after 7 days by Alamar blue assay. It is filed as functional. As to conditions: NCI-H460, 168 h.
Data set [5] deals with NCI-H460. As to the kind of experiment: Cytotoxicity against human NCI-H460 cells assessed as growth inhibition using regular folate media after 7 days by Alamar blue assay. It is filed as functional. The conditions noted are these: NCI-H460, 168 h.
Another data set has as its system MDA-MB-231. Put plainly: Cytotoxicity against human MDA-MB-231 cells assessed as growth inhibition using regular folate media after 7 days by Alamar blue assay. Format: functional. The conditions noted are these: MDA-MB-231, 168 h.
The test system of data set [6] is Mus musculus. As to the kind of experiment: Unbound clearance in CD-1 mouse at 1 mg/kg, iv by LC-MS/MS method. It is filed as ADME, organism-based. As to conditions: in vivo.
Data set [7] relates to Mus musculus. Put plainly: Unbound volume of distribution at steady state in CD-1 mouse at 1 mg/kg, iv by LC-MS/MS method. Format: ADME, organism-based. The conditions noted are these: in vivo.
Data set [8] has as its system Mus musculus. Put plainly: Unbound Cmax in CD-1 mouse at 10 mg/kg, po by LC-MS/MS method. Format: ADME, organism-based. The conditions noted are these: in vivo.
The subject of data set [9] is Mus musculus. Put plainly: In vivo inhibition of AICARFT in tumor of low folate diet fed nude mouse xenografted with human NCI-H460 cells assessed as increase in circulating AICAr levels at 0.3 to 30 mg/kg after 4 hrs relative to vehicle-treated control. It is filed as functional.
The target in data set [10] is T1, C-1-tetrahydrofolate synthase, cytoplasmic (Homo sapiens, UniProt P11586).
T1 sequence (P11586 whole entry): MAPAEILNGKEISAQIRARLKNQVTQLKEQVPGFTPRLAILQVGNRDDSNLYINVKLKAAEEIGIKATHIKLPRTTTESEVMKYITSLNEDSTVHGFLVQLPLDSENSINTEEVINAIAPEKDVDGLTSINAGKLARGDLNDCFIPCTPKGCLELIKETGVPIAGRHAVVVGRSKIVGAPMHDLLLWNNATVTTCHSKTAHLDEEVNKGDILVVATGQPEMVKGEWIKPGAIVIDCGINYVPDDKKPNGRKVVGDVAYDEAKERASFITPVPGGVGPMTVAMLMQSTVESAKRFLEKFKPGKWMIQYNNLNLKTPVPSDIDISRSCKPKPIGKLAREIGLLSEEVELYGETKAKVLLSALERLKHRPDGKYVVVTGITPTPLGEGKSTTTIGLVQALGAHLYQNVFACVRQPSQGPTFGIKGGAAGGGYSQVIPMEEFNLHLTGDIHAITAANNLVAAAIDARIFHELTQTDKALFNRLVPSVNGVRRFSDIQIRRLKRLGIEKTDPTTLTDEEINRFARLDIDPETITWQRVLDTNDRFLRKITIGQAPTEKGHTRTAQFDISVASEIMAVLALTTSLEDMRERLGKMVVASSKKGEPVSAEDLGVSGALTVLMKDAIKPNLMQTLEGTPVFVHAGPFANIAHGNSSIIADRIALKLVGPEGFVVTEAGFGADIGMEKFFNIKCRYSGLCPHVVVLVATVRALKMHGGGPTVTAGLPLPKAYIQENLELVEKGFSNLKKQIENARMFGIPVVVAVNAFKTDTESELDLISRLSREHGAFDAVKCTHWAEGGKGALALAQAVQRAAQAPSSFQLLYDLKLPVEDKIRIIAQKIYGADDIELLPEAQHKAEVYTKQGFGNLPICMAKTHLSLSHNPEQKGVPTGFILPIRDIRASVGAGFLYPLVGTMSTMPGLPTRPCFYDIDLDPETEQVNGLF
As to the kind of experiment: Inhibition of MTHFD1 (unknown origin) using NADP/5,10-methylene THF as substrate after 30 mins by HPLC method.

For data set [11], the target named is T2, Bifunctional methylenetetrahydrofolate dehydrogenase/cyclohydrolase, mitochondrial (Homo sapiens, UniProt P13995).
T2 sequence (P13995 whole entry): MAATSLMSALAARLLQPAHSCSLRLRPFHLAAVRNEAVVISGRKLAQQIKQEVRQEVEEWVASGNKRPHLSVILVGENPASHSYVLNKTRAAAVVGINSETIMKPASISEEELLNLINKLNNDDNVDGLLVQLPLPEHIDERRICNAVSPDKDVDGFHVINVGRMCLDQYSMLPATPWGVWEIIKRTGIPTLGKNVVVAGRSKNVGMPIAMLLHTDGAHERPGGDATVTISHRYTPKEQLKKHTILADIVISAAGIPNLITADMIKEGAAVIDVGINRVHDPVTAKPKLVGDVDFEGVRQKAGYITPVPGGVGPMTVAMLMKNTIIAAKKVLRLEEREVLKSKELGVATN
As to the kind of experiment: Inhibition of MTHFD2 (unknown origin) using NAD/5,10-methylene THF as substrate after 30 mins by HPLC method.

The target of the next data set is CYP3A4 (Homo sapiens, UniProt P08684). Put plainly: Inhibition of human CYP3A4 at 10 uM relative to control. It is filed as ADME.
Sequence of CYP3A4 (P08684 whole entry): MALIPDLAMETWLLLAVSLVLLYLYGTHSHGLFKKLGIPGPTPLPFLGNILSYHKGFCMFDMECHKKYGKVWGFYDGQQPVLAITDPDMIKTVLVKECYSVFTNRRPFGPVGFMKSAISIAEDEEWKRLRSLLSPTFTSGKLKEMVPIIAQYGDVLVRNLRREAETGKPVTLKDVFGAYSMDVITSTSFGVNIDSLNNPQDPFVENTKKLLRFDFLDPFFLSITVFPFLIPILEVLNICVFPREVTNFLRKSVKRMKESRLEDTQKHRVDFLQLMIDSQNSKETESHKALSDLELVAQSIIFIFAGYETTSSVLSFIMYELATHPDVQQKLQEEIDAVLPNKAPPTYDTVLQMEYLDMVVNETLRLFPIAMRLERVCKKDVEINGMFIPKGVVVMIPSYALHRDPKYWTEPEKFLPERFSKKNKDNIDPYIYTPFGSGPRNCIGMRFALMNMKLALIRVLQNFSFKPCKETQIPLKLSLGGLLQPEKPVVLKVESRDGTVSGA
The target in a further data set is CYP2D6 (Homo sapiens, UniProt P10635). As to the kind of experiment: Inhibition of human CYP2D6 at 10 uM relative to control. Format: ADME.
Sequence of CYP2D6 (P10635 whole entry): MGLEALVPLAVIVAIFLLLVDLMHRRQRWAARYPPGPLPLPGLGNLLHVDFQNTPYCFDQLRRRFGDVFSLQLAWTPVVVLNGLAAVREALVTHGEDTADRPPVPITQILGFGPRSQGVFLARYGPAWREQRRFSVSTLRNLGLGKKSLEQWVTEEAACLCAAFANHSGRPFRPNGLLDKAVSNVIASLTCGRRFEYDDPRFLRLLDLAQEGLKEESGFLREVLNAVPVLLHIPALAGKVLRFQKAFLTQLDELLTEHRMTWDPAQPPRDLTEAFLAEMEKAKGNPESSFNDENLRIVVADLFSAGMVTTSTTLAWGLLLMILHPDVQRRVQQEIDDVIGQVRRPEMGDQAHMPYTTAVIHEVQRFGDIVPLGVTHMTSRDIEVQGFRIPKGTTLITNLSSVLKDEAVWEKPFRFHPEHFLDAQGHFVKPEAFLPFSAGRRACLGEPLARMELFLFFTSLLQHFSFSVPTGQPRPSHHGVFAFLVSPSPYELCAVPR
A further data set deals with CYP2C9 (Homo sapiens, UniProt P11712). As to the kind of experiment: Inhibition of human CYP2C9 at 10 uM relative to control. It is filed as ADME.
Sequence of CYP2C9 (P11712 whole entry): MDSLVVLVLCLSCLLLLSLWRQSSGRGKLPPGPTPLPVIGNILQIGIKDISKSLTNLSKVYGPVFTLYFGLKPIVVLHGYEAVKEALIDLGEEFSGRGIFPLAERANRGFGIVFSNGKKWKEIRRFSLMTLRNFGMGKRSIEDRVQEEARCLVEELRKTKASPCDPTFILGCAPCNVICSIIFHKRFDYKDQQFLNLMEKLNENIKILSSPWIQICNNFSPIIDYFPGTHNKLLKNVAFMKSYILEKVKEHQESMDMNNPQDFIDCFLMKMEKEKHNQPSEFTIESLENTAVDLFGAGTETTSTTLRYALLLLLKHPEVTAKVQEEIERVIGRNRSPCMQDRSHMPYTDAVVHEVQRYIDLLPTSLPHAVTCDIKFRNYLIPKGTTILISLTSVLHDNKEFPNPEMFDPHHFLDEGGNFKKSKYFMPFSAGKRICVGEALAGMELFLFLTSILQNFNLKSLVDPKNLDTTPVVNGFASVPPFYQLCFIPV
The nature of data set [12]: Antiproliferative activity against human MDA-MB-231met2 cells by Alamar blue assay. Format: functional, cell-based.
Data set [13] is described as follows: Antitumor activity against human MDA-MB-231met2 cells xenografted in athymic nude mouse assessed as tumor volume at 30 mg/kg, bid administered via oral gavage for 22 days relative to control. Format: functional.
A short description of data set [14]: Antitumor activity against human MDA-MB-231met2 cells xenografted in athymic nude mouse assessed as tumor volume at 60 mg/kg, bid administered via oral gavage for 22 days relative to control. It is filed as functional.
Data set [15] has as its system Mus musculus. Put plainly: Toxicity in athymic nude mouse xenografted with human MDA-MB-231met2 cells assessed as mortality at 30 to 60 mg/kg, bid administered via oral gavage for 22 days. As to conditions: in vivo, 528 h. It is filed as organism-based.
For data set [16], the system named is Mus musculus. As to the kind of experiment: Toxicity in athymic nude mouse xenografted with human MDA-MB-231met2 cells assessed as body weight loss at 30 to 60 mg/kg, bid administered via oral gavage for 22 days. Format: organism-based. The conditions noted are these: in vivo, 528 h.
Data set [17] deals with Mus musculus. As to the kind of experiment: In vivo inhibition of AICARFT in tumor of athymic nude mouse xenografted with human MDA-MB-231met2 cells assessed as increase in AICAr levels at 30 mg/kg, bid administered via oral gavage for 22 days relative to control. Format: functional.
The subject of data set [18] is Mus musculus. As to the kind of experiment: In vivo inhibition of AICARFT in tumor of athymic nude mouse xenografted with human MDA-MB-231met2 cells assessed as increase in ZMP levels at 30 mg/kg, bid administered via oral gavage for 22 days relative to control. Format: functional.
Data set [19] relates to Mus musculus. As to the kind of experiment: In vivo inhibition of AICARFT in tumor of athymic nude mouse xenografted with human MDA-MB-231met2 cells assessed as increase in AICAr levels at 60 mg/kg, bid administered via oral gavage for 22 days relative to control. It is filed as functional.
A further data set has as its system MDA-MB-231met2. Put plainly: Antitumor activity against human MDA-MB-231met2 cells xenografted in athymic nude mouse assessed as tumor growth inhibition administered as bid via oral gavage for 22 days. It is filed as functional, cell-based.

Regarding `O=c1[nH]ccc2cc(F)c(NS(=O)(=O)c3ccc(N4CC[C@@H](O)C4)s3)cc12`, the permeability in data set [1] was found to be 0.2%. In data set [2], this compound yielded a bioavailability of 25%. Also, the fraction unbound in data set [3] was 0.06. In addition, the results for the GI50 with NCI-H460 [4], in the data set on NCI-H460 [5] and in the data set with MDA-MB-231 were 25 nM, 6580 nM and 44 nM, respectively. The compound further displayed a CL free in the data set on Mus musculus [6] of 78 mL/min/kg. Also, the Vduss in the data set with Mus musculus [7] came to 12 L/kg. In the data set with Mus musculus [8], the fCmax worked out at 289 nM. The “fold change (FC)” value in the data set on Mus musculus [9] came out at 80; in the data set on Mus musculus [17], 30; with Mus musculus [18] it was 10; with Mus musculus [19], 3. The IC50 in data set [10] is greater than 100000 nM; in data set [11], greater than 100000 nM; in [12] it was 85 nM. Also, the inhibition at 10 µM against CYP3A4, against CYP2D6 and against CYP2C9 was less than 10% throughout. Moreover, the Activity is given as 16% in data set [13], -1% in data set [14], “Non-Toxic” in the data set with Mus musculus [15] and “Non-Toxic” in the data set on Mus musculus [16]. In addition, the TGI entry in the data set on MDA-MB-231met2 is “Dose-dependent effect”.

The values above are taken from ChEMBL document CHEMBL4020815 (J Med Chem, 2017).
